Measurements published in patent publication US20030082112A1, “Composition” (Unilever Home & Personal Care USA, Division of Conopco, Inc., priority 2001, published 2003).

Assay: Storage stability of the alkyl hydroxybenzoate in the alkaline chalk oral care formulation
Type: physicochemical
Conditions: 37° C. for two months; 1.0 w/w % in fine ground natural chalk formulation of the Example
Procedure: The following formulation is a composition according to the invention and is made by ordinary methods known to a skilled person.
This octyl parahydroxy benzoic acid in this formulation was stable at 37° C. for two months.

## CCCCCCCCOC(=O)c1ccc(O)cc1 [octyl parahydroxy benzoic acid]
  stability in the formulation: stable
